# Experimental data from US9272047B2, “Use of biological surfactant as anti-inflammatory agent and tissue preservative solution” (Shaperon Inc., priority 2007, dated 2016).
# “Also recorded” adds a separate entry of the source.
# Tests used:
# dendritic cells [1] = test: Inhibition of E. coli LPS-induced activation of dendritic cells (CD40, CD80, CD86, I-Ab expression); assay type: cell-based, mouse; conditions: 100 ng/ml E. coli LPS; CD11c(+)/7AAD(−) dendritic cells
# Description: In order to assay the effect of sodium glycocholate on the activation procedure of antigen presenting cells, which is induced by E. coli LPS, cells were separated from the bone marrow of recombination activating gene 2 (Rag2) deficient mouse. The separated cells were plated at 2×10^5 cells/well in a 96-well plate and then treated with 1.5 ng/ml of granulocyt-macrophage colony-stimulating factor (GM-CSF) and 0.75 ng/ml of interleukin-4 followed by the differentiation of the cells into dentritic cells through 6-day incubation.
# The dendritic cells were well mixed with sodium glycocholate and LPS. The mixtures were stimulated for 18 hours at 37° C., and stained with anti-CD40-FITC, anti-CD80-FITC, anti-I-Ab-PE, anti-CD86-PE, 7AAD and anti-CD11c-APC, then the cells were assayed via a flow cytometer. Each group was treated and assayed at least twice, and the results were statistically analyzed through t-test. The results were p<0.05 compared with the experimental groups treated by only LPS.
# As shown FIGS. 9A-9B to 11A-11B, in order to assay only living dedritic cells, CD11c(+)/7AAD(−) cells were selected and then the expressions of dendritic cell costimulatory molecules and I-Ab were assayed.
# NF-κB = test: Inhibition of E. coli LPS-stimulated NF-κB activation (CD25 expression) in 3FP CHO cells; assay type: cell-based, Chinese hamster; conditions: for nuclear transcription factor inhibition: LPS-stimulated 3FP cells, CD25 expression; for inhibition effect for LPS-stimulated CD25 expression (NF-κB activation): live 7AAD(−) LPS-stimulated 3FP cells
# Description: In order to evaluate the inhibition efficacy for the activation of E. coli LPS-stimulated NF-κB in a CHO cell, % expression of CD 25 in the CHO cell was evaluated as the following method, and FACS analysis after staining with 7-AAD was carried out to evaluate the cytotoxicity. Bile salts were classified into 3 groups based on their solubility in different solvents, as follows:
# The CHO cells expressing CD25 under the regulation of a nuclear factor (NF-κB) promoter, shown FIG. 2A, were used for this experiment. Toll-like receptor 2 (TLR2) and CD14 gene-transformed CHO cells (hereinafter referred to as “3FP cells”) were also used.
# The next day, the cultured cells were treated with bile acid derivatives and LPS, and were incubated in a CO2 incubator for 15 hr at 37° C.
# After stimulating the above incubated cells for 15 hr, the culture solution was centrifuged (1200 rpm, 5 min, 4° C.) to remove the culture supernatant. The precipitate was washed twice with 200 μl of FACS buffer (1×PBS containing 1% BSA and 1 mM EDTA). 20 μl of blocking solution (PBS containing 1:10 of normal mouse serum and 1:3 of anti-human CD14/CD32 (BD, 2.4G2) was added to each well and reacted on an ice for 30 min. A mixture solution of anti-human CD25-PE (1:16) and anti-human CD14-FITC (1:32) was added to the well and then reacted on the ice for 30 min. The reaction mixture was washed twice with 200 μl of FACS buffer, and then 200 μl of 7-AAD (1:20) was added to the reaction mixture. After the reaction mixture was reacted on the ice for 10 min, CD25 expression efficacy and cytotoxicity were analyzed by using a flow cytometer.
# In order to analyze living cells, 7-AAD(−) cells were selected and an activation of nuclear transcription factor was confirmed by the increase of CD25 expression.
# dendritic cells [2] = test: Cytotoxicity to dendritic cells (7AAD, FACS); assay type: cell-based, mouse
# Description: (§1) The cytotoxicity of sodium glycocholate to the CHO cells, dendritic cells, T cells which were used in the above Examples was assayed. FACS analysis was performed after staining with 7AAD. First, sodium glycocholate was kept in vitro for 1 hour at 37° C., and then mixed with cells. CHO cells or dendritic cells were incubated for 14 hours at 37° C., and T cells which were mixed with 14 hour-incubated dendritic cells, were incubated for 4 days. Then, each cell was stained with 7AAD and cell analysis were carried out by using a flow cytometer.
# [3] = test system: LPS-administered C57BL/6 mouse; test: In vivo serum cytokines in LPS-administered mice (CBA kit)
# Description: As described in Example 7, 20 mg/kg of LPS was administered into the abdomen of mice and then 12.5 mg/kg of sodium glycocholate, and 20 mg/kg of LPS and 50 mg/kg of sodium glycocholate respectively was administered twice into the abdomen of mice, respectively. At the predetermined time, blood was collected from mouse tail and then serum was obtained by centrifugation (2400×g, 10 min). The change of cytokine expression in the serum was measured by using cytometric bead array (CBA) kit.
# [4] = test system: LPS-administered C57BL/6 mice; test: Protection in LPS mouse model of sepsis (survival); assay type: in vivo, C57BL/6 mouse; conditions: for survival rate of the mice: 20 mg/kg LPS into abdomen
# Description: In order to assay the neutralizing capacity of sodium glycocholate to LPS, three C57BL/6 mice of 6 weeks age were used per each group. 20 mg/kg and 10 mg/kg of LPS were administered into abdomen of the mouse in order to measure LD50 of LPS. It was observed that 20 mg/kg of LPS is the best optimal concentration for the test of protection test (FIG. 16).
# The […] neutralizing capacity of sodium glycocholate to LPS was assayed. The survival rate was measured after 20 mg/kg of LPS was administered into the abdomen of mice and then 12.5 mg/kg of sodium glycocholate, and 20 mg/kg of LPS and 50 mg/kg of sodium glycocholate respectively was administered twice into the abdomen of mice, respectively.
# CHO cells = test: Cytotoxicity to CHO cells (7AAD, FACS); assay type: cell-based, Chinese hamster
# Description: as §1
# The same procedures as for FIG. 25A were carried out in FIGS. 26A-26C-Figs. 31A-31B and cytotoxicity experiments were performed on three groups of bile acid derivatives which were classified based on their solubility in different solvents.
# abdominal cells = test: Toxicity to abdominal cells separated from mice after abdominal administration (7AAD); assay type: in vivo, C57BL/6 mouse; conditions: 5 mg (250 mg/kg) into abdomen, cells separated after 1 hour
# Description: In order to assay the toxicity of sodium glycocholate to a mouse, experiments were performed to five C57BL/6 male mice of 7-9 weeks age per each group. Sodium glycocholate dissolved in PBS was kept in vitro for 1 hour at 37° C., and then the sodium glycocholate solution was administered into the abdomen of the mice followed by the cell analysis. After 1 hour from the administration, the abdominal cells were separated and stained with 7AAD, and then the abdominal cells were analyzed. Cells which were freezed and thawed at least five times were used for a positive control group in 7ADD staining. Experimental results were statistically analyzed by t-test, and p<0.05 compared with the experimental group which was not treated with sodium glycocholate.
smiles,measurement,setting,value
C[C@H](CCC(=O)NCC(=O)[O-])[C@H]1CC[C@H]2[C@@H]3[C@H](O)C[C@@H]4C[C@H](O)CC[C@]4(C)[C@H]3C[C@H](O)[C@]12C.[Na+] [sodium glycocholate],"increased expression of CD40, CD80, CD86 and I-Ab",dendritic cells [1],inhibited depending on the concentration
same,nuclear transcription factor inhibition,NF-κB; 0.5 mg/ml,21.7±0.9%
same,nuclear transcription factor inhibition,NF-κB; 1 mg/ml,88.2±1.2%
same,inhibition effect for LPS-stimulated CD25 expression (NF-κB activation),NF-κB,inhibited depending on the concentration
same,inhibition effect for LPS-stimulated CD25 expression (NF-κB activation),NF-κB; listed as sodium glycocholate hydrate,showed an inhibition effect
same,cytotoxicity,dendritic cells [2]; 1 mg/ml,no significant cytotoxicity; also recorded: dose not have cytotoxicity
same,7AAD(+) increase compared with the negative control group,dendritic cells [2]; 14 hours,2-4%
same,IL-10 in serum,[3],significantly increased; also recorded: increase
same,IFN-g in serum,"[3]; after 4, 8 and 12 hours",decrease
same,IL-12p70 in serum,"[3]; after 4, 8 and 12 hours",decrease
same,IL-6 in serum,"[3]; after 12, 24 and 48 hours",remarkably decreased; also recorded: decrease
same,MCP-1 in serum,"[3]; after 12, 24 and 48 hours",remarkably decreased; also recorded: decrease
same,TNF-α in serum,"[3]; after 12, 24 and 48 hours",remarkably decreased; also recorded: decrease
same,survival rate of the mice,[4]; 12.5 mg/kg administered twice (1 hour and 6 hours after LPS),40%
same,survival rate of the mice,[4]; 50 mg/kg administered twice (1 hour and 6 hours after LPS),60%
same,mortality of mice,[4]; dose of 12.5 mg/kg mouse,significantly reduced
same,cytotoxicity,CHO cells; 1 mg/ml,no significant cytotoxicity; also recorded: dose not have cytotoxicity
same,7AAD(+) increase compared with the negative control group,CHO cells; 14 hours,2-4%
same,cytotoxicity for abdominal cells (survival rate of the abdominal cells versus PBS control),abdominal cells,no significant difference; also recorded: dose not have cytotoxicity
